Patent US12194039B2, “Methods of treating heart failure by administering omecamtiv mecarbil” (Cytokinetics, Inc., priority 2020, dated 2025)
Several values for one entry are separate records, joined by “and”; a condition that tells them apart may be missing. Equal values may be shown once. Entries after “also recorded” stand apart in the source; their conditions may differ. Read-outs that look alike come from different tables or passages of the source.

How the values were obtained:
[1] = Effect of food on OM systemic exposure; type: in vivo, human; details: healthy subjects; result in words
[2] = test system: patients with HFrEF by baseline NT-proBNP (no AF/F and all randomized); details: for 1° Outcome (time to HF hospitalization or CV death), HR / All-cause death, HR / Hospitalization for HF, HR / NT-proBNP change from baseline to 24 weeks, Ratio: OM vs placebo
Procedure: Here we report the effect of omecamtiv mecarbil according to baseline NT-proBNP level in patients without AF/F and in the overall population. In addition, we describe the effect of omecamtiv mecarbil using NT-proBNP as a continuous as well as a categorical measure and describe the effect of omecamtiv mecarbil on NT-proBNP level.
NT-proBNP was measured at baseline and at 2, 6, 24, 48 and 96 weeks after randomization. Plasma NT-proBNP was measured in a central laboratory (Q Squared Solutions) using the Roche Elecsys NT-proBNP two-site electrochemiluminescence immunoassay (analytical range 50-35000 pg/m L).
Baseline characteristics were summarized as frequencies with percentages, means with standard deviation (SD), or medians with interquartile ranges. Differences in baseline characteristics were tested using the Cochrane-Armitage trend test for categorical variables and the analysis of variance test for continuous variables. The difference between treatment groups in NT-proBNP at the time points after randomization in surviving patients was analyzed using an analysis of covariance model, with treatment-group assignment as a fixed-effect factor and baseline NT-proBNP as a covariate. […] Time-to-event data were evaluated with Kaplan-Meier estimates and Cox proportional-hazards models with baseline hazards stratified by randomization setting and region and with treatment group and baseline eGFR as covariates. The safety analyses were performed in patients who underwent randomization and received at least one dose of omecamtiv mecarbil or placebo. […] A P-value of 0.05 was considered statistically significant.

[3] = test system: patients with heart failure and reduced ejection fraction; type: in vivo, human; details: for Creatinine, change from baseline, mean / Heart rate, change from baseline, mean / Potassium, change from baseline, mean / Systolic blood pressure, change from baseline, mean / Troponin, change from baseline, median: N = 4110
Procedure: All eligible participants were randomized 1:1 to oral administration of either placebo or omecamtiv mecarbil (pharmacokinetic-guided dosing: 25, 37.5 or 50 mg) twice daily. Pre-dose plasma concentrations of omecamtiv mecarbil were measured at weeks 2 and 6 with respective dose adjustments on weeks 4 and 8. The patient and investigator were blinded to the plasma concentrations and dispensed dose. The full schedule of assessments is provided in the protocol available at NEJM.org. Study drug was temporarily withheld if the participant experienced clinical signs or symptoms consistent with acute myocardial infarction or ischemia.
Other outcomes of interest included the effects of omecamtiv mecarbil on vital signs and selected laboratory values (Table 3).
Continuous variables were summarized as means±standard deviations (SD) or medians and first and third quartiles (Q1, Q3), as appropriate. Categorical variables were summarized as counts and percentages. […] The change from baseline on NT-proBNP analysis included all participants who underwent randomization. The difference column is the exponentiated change from baseline on the log scale using a mixed model containing the log baseline value, region, baseline eGFR, scheduled visit, treatment group and interaction of treatment with scheduled visit.

[4] = All patients, baseline NT-proBNP >median
[5] = All patients, baseline NT-proBNP >median, OM n = 2034
[6] = All patients, baseline NT-proBNP ≤median
[7] = All patients, baseline NT-proBNP ≤median, OM n = 2073
[8] = No AF/F, baseline NT-proBNP >median
[9] = No AF/F, baseline NT-proBNP >median, OM n = 1489
[10] = No AF/F, baseline NT-proBNP ≤median
[11] = No AF/F, baseline NT-proBNP ≤median, OM n = 1476
[12] = patients without AF/F, baseline NT-proBNP>median

## COC(=O)N1CCN(Cc2cccc(NC(=O)Nc3ccc(C)nc3)c2F)CC1 [omecamtiv mecarbil]
[1]
  Effect of a high-fat, high-calorie meal on systemic exposure: no clinically significant effect
[2]; [4]
  NT-proBNP at 24 wks: 2809 pg/mL
  1° Outcome (time to HF hospitalization or CV death), HR: 0.88
  All-cause death, HR: 0.97
  Hospitalization for HF, HR: 0.88
  NT-proBNP change from baseline to 24 weeks, Ratio: 0.84
[2]; [5]
  1° Outcome (time to HF hospitalization or CV death), %: (48) %
  1° Outcome (time to HF hospitalization or CV death), Rate: 36.52 per 100 person-years
  All-cause Death (%): (36) %
  All-cause Death Rate: 21.87 per 100 person-years
  Hospitalization for HF, %: (37) %
  Hospitalization for HF, Rate: 27.93 per 100 person-years
[2]; [6]
  NT-proBNP at 24 wks: 772 pg/mL
  1° Outcome (time to HF hospitalization or CV death), HR: 1.02
  All-cause death, HR: 1.10
  Hospitalization for HF, HR: 1.04
  NT-proBNP change from baseline to 24 weeks, Ratio: 0.95
[2]; [7]
  1° Outcome (time to HF hospitalization or CV death), %: (26) %
  1° Outcome (time to HF hospitalization or CV death), Rate: 15.00 per 100 person-years
  All-cause Death (%): (16) %
  All-cause Death Rate: 8.11 per 100 person-years
  Hospitalization for HF, %: (20) %
  Hospitalization for HF, Rate: 11.84 per 100 person-years
[2]; NT-proBNP as a continuous measure, patients without AF/F
  NT-proBNP threshold at which the favorable effect emerged: around 2,000 pg/mL
[2]; [8]
  NT-proBNP at 24 wks: 2302 pg/mL
  1° Outcome (time to HF hospitalization or CV death), HR: 0.81
  All-cause death, HR: 0.86
  Hospitalization for HF, HR: 0.79
  NT-proBNP change from baseline to 24 weeks, Ratio: 0.83
[2]; [9]
  1° Outcome (time to HF hospitalization or CV death), %: (44) %
  1° Outcome (time to HF hospitalization or CV death), Rate: 31.30 per 100 person-years
  All-cause Death (%): (32) %
  All-cause Death Rate: 18.67 per 100 person-years
  Hospitalization for HF, %: (32) %
  Hospitalization for HF, Rate: 23.26 per 100 person-years
[2]; [10]
  NT-proBNP at 24 wks: 614 pg/mL
  1° Outcome (time to HF hospitalization or CV death), HR: 0.94
  All-cause death, HR: 0.96
  Hospitalization for HF, HR: 0.97
  NT-proBNP change from baseline to 24 weeks, Ratio: 0.95
[2]; [11]
  1° Outcome (time to HF hospitalization or CV death), %: (22) %
  1° Outcome (time to HF hospitalization or CV death), Rate: 12.42 per 100 person-years
  All-cause Death (%): (13) %
  All-cause Death Rate: 6.74 per 100 person-years
  Hospitalization for HF, %: (17) %
  Hospitalization for HF, Rate: 9.62 per 100 person-years
[2]; baseline to 24 weeks, result in words
  Effect on NT-proBNP by baseline NT-proBNP: reduced NT-proBNP only in patients with a baseline value NT-proBNP greater than the median
[2]; in vivo
  Adverse events compared to placebo: no strong or consistent evidence that any adverse event was more common
  Effect on systolic blood pressure: did not have a significant effect
  Effect on troponin I: increased troponin I, significantly
  HR (heart rate) at 24 wks: 70 (11) bpm and 69 bpm and 70 (12) bpm and 70 bpm
  Major cardiac ischemic events, RR: 1.16 (0.86, 1.56) and 1.10 (0.85, 1.43) and 1.08 (0.80, 1.47) and 0.99 (0.74, 1.33)
  Major cardiac ischemic events, number of patients: 86 (5.8) and 114 (5.5) and 83 (5.6) and 85 (4.2)
  Major cardiac ischemic events, value in parentheses: 86 (5.8) and 114 (5.5) and 83 (5.6) and 85 (4.2)
  Reduction of heart rate: 1-2 beats per minute
  SBP at 24 wks: 120 mmHg and 116 mmHg
  Stroke, RR: 0.83 (0.49, 1.39) and 0.68 (0.44, 1.03) and 0.73 (0.45, 1.17) and 0.69 (0.46, 1.03)
  Stroke, number of patients: 25 (1.7) and 36 (1.7) and 29 (2.0) and 40 (2.0)
  Stroke, value in parentheses: 25 (1.7) and 36 (1.7) and 29 (2.0) and 40 (2.0)
  Torsade/QT prolongation, RR: 0.84 (0.58, 1.23) and 0.88 (0.65, 1.19) and 1.01 (0.73, 1.39) and 0.94 (0.72, 1.23)
  Troponin I change from baseline to 24 weeks, Ratio: 1.28 and 1.25 and 1.23
  Ventricular tachyarrhythmia leading to treatment, RR: 0.67 (0.42, 1.07) and 0.86 (0.59, 1.25) and 1.15 (0.77, 1.72) and 1.02 (0.73, 1.42)
  Ventricular tachyarrhythmia, RR: 0.82 (0.62, 1.09) and 0.89 (0.71, 1.12) and 1.05 (0.82, 1.35) and 1.03 (0.83, 1.27)
  Ventricular tachyarrhythmia, number of patients: 84 (6.7) and 130 (7.3) and 115 (8.6) and 160 (8.7)
  Ventricular tachyarrhythmia, value in parentheses: 84 (6.7) and 130 (7.3) and 115 (8.6) and 160 (8.7)
[2]; overall population, NT-proBNP less than or equal to the median
  Primary endpoint, hazard ratio: 1.01
[2]; overall population, NT-proBNP>median
  Primary endpoint, hazard ratio: 0.88
[2]; patients with AF/F at baseline, result in words
  Primary outcome event rate compared with the placebo group: higher event rate
[2]; patients with NT-proBNP greater than the median at baseline
  Proportional reduction in NT-proBNP compared with placebo: approximately 17%
[2]; patients without AF/F, NT-proBNP greater than the median
  Primary endpoint, hazard ratio: 0.81
[2]; patients without AF/F, NT-proBNP less than or equal to the median
  Primary endpoint, hazard ratio: 0.94
[2]; patients without AF/F, NT-proBNP≤median, result in words
  Benefit on primary endpoint: no benefit
[2]; [12]
  Relative risk reduction in cardiovascular mortality: 13%
  Relative risk reduction in heart failure hospitalization: 21%
  Relative risk reduction in the primary endpoint: 18%
[2]; result in words
  Treatment efficacy / benefit by baseline NT-proBNP level: higher treatment efficacy; also recorded: larger in patients with higher baseline NT-proBNP levels
[3]; Week 24
  Creatinine, change from baseline, difference vs placebo: 0.007 mg/dL
  Heart rate, change from baseline, difference vs placebo: −1.61 bpm
  Potassium, change from baseline, difference vs placebo: 0.002 mmol/L
  Systolic blood pressure, change from baseline, difference vs placebo: −0.13 mmHg
  Creatinine, change from baseline, mean: 0.03 mg/dL
  Heart rate, change from baseline, mean: −2.1 bpm
  Potassium, change from baseline, mean: -0.01 mmol/L
  Systolic blood pressure, change from baseline, mean: 1.4 mmHg
  Troponin, change from baseline, median: 0.004 ng/mL
[3]; Week 24, all randomized participants
  NT-proBNP, change from baseline, median: -251 pg/mL
[3]; Week 24, lower limit of quantification 0.010 ng/mL
  Troponin, change from baseline, difference vs placebo: 0.004 ng/mL
[3]; Week 24, mixed model
  NT-proBNP, exponentiated change from baseline on the log scale, omecamtiv mecarbil vs placebo: 0.90
[3]; Week 24, result in words
  NT-proBNP concentrations compared to placebo: significantly decreased
[3]; Week 48
  Creatinine, change from baseline, difference vs placebo: 0.010 mg/dL
  Heart rate, change from baseline, difference vs placebo: −1.75 bpm
  Potassium, change from baseline, difference vs placebo: -0.007 mmol/L
  Systolic blood pressure, change from baseline, difference vs placebo: 0.16 mmHg
  Troponin, change from baseline, difference vs placebo: 0.002 ng/mL
  Creatinine, change from baseline, mean: 0.06 mg/dL
  Heart rate, change from baseline, mean: −2.0 bpm
  Potassium, change from baseline, mean: -0.03 mmol/L
  Systolic blood pressure, change from baseline, mean: 2.0 mmHg
  Troponin, change from baseline, median: 0.002 ng/mL
[3]; at 24 and 48 weeks, result in words
  Heart rate compared to placebo: small but significant decrease
[3]; at 24 or 48 weeks, result in words
  Change in systolic blood pressure, omecamtiv mecarbil vs placebo: no significant difference
[3]; during the course of the trial, result in words
  Potassium or creatinine concentrations compared to placebo: no change
